Results published in ChEMBL document CHEMBL3046896, “Synthesis and antitumor screening of new series of pyrimido-[4,5-b]quinolines and [1,2,4]triazolo[2,3:3,4]pyrimido[6,5-b]quinolines” (Med Chem Res, 2013).
Calls of active or inactive are those of the source. No cut-off for these calls is given here.

Experiments:
MCF7 = assay: Cytotoxicity against Homo sapiens (human) MCF7 cells after 48 hr by SRB assay; type: functional, cell-based; conditions: MCF7, 48 h
[1] = Displacement of methyl green from DNA after 24 hr by spectrophotometric analysis
[2] = Binding affinity to DNA at 5 mg/ml by TLC analysis

Molecule | IC50 (MCF7) | IC50 [1] | Activity [2]
CCOC(=O)/N=c1/c2c(ncn1NC(=O)OCC)NC1=C(CCCC1)C2c1ccccc1 (stereo not drawn) | 5.44 µM | 40 µM | Active
O=c1[nH]cnc2c1C(c1ccccc1)C1=C(CCCC1)N2 (stereo not drawn) | > 10 µM | 88 µM | inactive
Cc1nc2c(c(=O)[nH]1)C(c1cccc(Br)c1)C1=C(CCCC1)N2 (stereo not drawn) | 4.03 µM | 32 µM | Active
COc1ccc(C2C3=C(CCCC3)Nc3ncn(/N=C/c4ccc(Cl)cc4)c(=N)c32)cc1OC (stereo not drawn) | 3.76 µM | 14 µM | Active
CCCCn1c(=S)[nH]c2c(c1=N)C(c1ccccc1)C1=C(CCCC1)N2 (stereo not drawn) | 5.7 µM | 72 µM | Active
COc1ccc(/C=N/n2cnc3c(c2=N)C(c2ccccc2)C2=C(CCCC2)N3)cc1OC (stereo not drawn) | 5.37 µM | 32 µM | Active
S=c1[nH]c2c(c(=S)[nH]1)C(c1ccccc1)C1=C(CCCC1)N2 (stereo not drawn) |  | 72 µM | Active
BLEOMYCIN |  | 10 µM | 
COc1ccc(C2C3=C(CCCC3)Nc3[nH]c(=S)[nH]c(=S)c32)cc1OC (stereo not drawn) | > 10 µM | 38 µM | Active
S=c1[nH]c2c(c(=S)[nH]1)C(c1cccc(Br)c1)C1=C(CCCC1)N2 (stereo not drawn) | 4.5 µM | 76 µM | Active
COc1ccc(C2C3=C(CCCC3)Nc3[nH]c(=S)n(-c4ccccc4)c(=N)c32)cc1OC (stereo not drawn) | 5.3 µM | 40 µM | Active
Brc1cccc(C2C3=C(CCCC3)Nc3ncn4ncnc4c32)c1 (stereo not drawn) | > 10 µM | 90 µM | inactive
N=c1c2c(ncn1/N=C/c1ccc(Cl)cc1)NC1=C(CCCC1)C2c1ccc(Cl)cc1 (stereo not drawn) | > 10 µM | 70 µM | Active
COc1ccc(C2C3=C(CCCC3)Nc3nc(C)[nH]c(=O)c32)cc1OC (stereo not drawn) | > 10 µM | 25 µM | Active
CCCCn1c(=S)[nH]c2c(c1=N)C(c1ccc(Cl)cc1)C1=C(CCCC1)N2 (stereo not drawn) |  | 88 µM | inactive
c1ccc(C2C3=C(CCCC3)Nc3ncn4ncnc4c32)cc1 (stereo not drawn) | > 10 µM | 88 µM | inactive
COc1ccc(/C=N/n2cnc3c(c2=N)C(c2ccc(OC)c(OC)c2)C2=C(CCCC2)N3)cc1OC (stereo not drawn) | 6.17 µM | 38 µM | Active
N=c1c2c([nH]c(=S)n1-c1ccccc1)NC1=C(CCCC1)C2c1ccccc1 (stereo not drawn) | 6.98 µM | 25 µM | Active
Nc1ncnc2c1C(c1ccc(Cl)cc1)C1=C(CCCC1)N2 (stereo not drawn) | 3.89 µM | 25 µM | Active
COc1ccc(C2C3=C(CCCC3)Nc3ncnc(N)c32)cc1OC (stereo not drawn) | 3.62 µM | 12 µM | Active
N=c1c2c(ncn1/N=C/c1ccc(Cl)cc1)NC1=C(CCCC1)C2c1ccccc1 (stereo not drawn) |  | 88 µM | inactive
Cc1nc2c(c(=O)[nH]1)C(c1ccccc1)C1=C(CCCC1)N2 (stereo not drawn) | 4.97 µM | 22 µM | Active
N=c1c2c([nH]c(=S)n1-c1ccccc1)NC1=C(CCCC1)C2c1ccc(Cl)cc1 (stereo not drawn) |  | 55 µM | Active
